Results as given in article PMC3705412, “PTP1B Inhibitory and Anti-Inflammatory Effects of Secondary Metabolites Isolated from the Marine-Derived Fungus Penicillium sp. JF-55” (Marine Drugs, 2013).

Columns and labels:
IκB-α = test: Western blotting of IκB-α phosphorylation and degradation in LPS-stimulated macrophages; type: cell-based, murine (C57BL/6 mice); settings: pre-treatment 12 h, 5 to 40 μM, LPS 1 μg/mL 1 h
Procedure: Figure 5 The effects of penstyrylpyrone (1) on the protein expression level of IκB-α phosphorylation, degradation of IκB-α (A), NF-κB translocation (B), and NF-κB DNA binding activity (C) in murine peritoneal macrophages. Murine peritoneal macrophages were pre-treated for 12 h at the indicated concentrations of penstyrylpyrone (1), and stimulated for 1 h with LPS (1 μg/mL). Western blotting analysis of IκB-α and p-IκB-α in the cytoplasm and NF-κB in the nucleus (A, B) were performed. A commercially available NF-κB ELISA (Active Motif) was used to test the nuclear extracts and to determine the degree of NF-κB binding (C). […]
Murine peritoneal macrophages were homogenized (1:20, w:v) in PER-Mammalian Protein Extraction buffer (Pierce Biotechnology, Rockford, IL, USA) containing freshly added protease inhibitor cocktail I (EMD Biosciences, San Diego, CA, USA) and 1 mM phenylmethylsulfonyl fluoride (PMSF). […] The protein concentration was determined using the bicinchoninic acid (BCA) protein assay kit.
Western blotting analysis was performed by lysing the cells in 20 mM Tris-HCl buffer (pH 7.4) containing a protease inhibitor mixture (0.1 mM PMSF, 5 mg/mL aprotinin, 5 mg/mL pepstatin A, and 1 mg/mL chymostatin). The protein concentration was determined using a Lowry protein assay kit (P5626; Sigma Chemical Co., St. Louis, MO, USA). […]

HO-1 = test: Effect of the HO-1 inhibitor SnPP on the inhibition of pro-inflammatory mediators in LPS-stimulated macrophages; type: cell-based, murine (C57BL/6 mice); settings: 40 μM pre-treatment 12 h, SnPP 50 μM, LPS 1 μg/mL 18 h
Procedure: Figure 8 The effects of SnPP on the inhibition of nitrite production (A), PGE2 production (B), NF-κB DNA-binding activity (C), TNF-α production (D), and IL-1β production (E) by penstyrylpyrone (1) pre-treatment of LPS-stimulated murine peritoneal macrophages. Murine peritoneal macrophages were pre-treated for 12 h with penstyrylpyrone (1) (40μM), in the presence or absence of SnPP (50 μM) and stimulated for 18 h with LPS (1μg/mL). The nitrite (A), PGE2 (B), TNF-α (D), and IL-1β (E) concentrations and nuclear NF-κB DNA-binding activity (C) were investigated as described in Materials and Methods. […]
The production of nitrite, a stable end product of NO oxidation, was used as a measure of iNOS activity. The nitrite present in the conditioned medium was determined using a method based on the Griess reaction.
The level of PGE2, TNF-α or IL-1β present in each sample was determined using a commercially available kit from R & D Systems. […] A substrate solution was added, and the intensity of the color produced, which was measured at 450 nm (the correction wavelength was set at 540 nm or 570 nm), was proportional to the amount of PGE2, TNF-α or IL-1β present.
The DNA-binding activity of NF-κB in the nuclear extracts was measured using the TransAM kit (Active Motif, Carlsbad, CA, USA) according to the manufacturer’s instructions.

- Suppressive effects on LPS-stimulated NO, PGE2, TNF-α, IL-1β production and NF-κB DNA-binding activity in presence of SnPP (HO-1): partially reversed by SnPP
Compound: COc1cc(/C=C/c2ccccc2)oc(=O)c1C [Penstyrylpyrone (1), penstyrylpyrone]
- LPS-induced phosphorylation and degradation of IκB-α (IκB-α): markedly inhibited
